These results are taken from patent publication US9605002B2, “5,5-heteroaromatic anti-infective compounds” (priority 2012, dated 2017).

Converted amounts (≈) assume the structure as drawn. “And” between values parts separate entries of the source, which are not always exact repeats. Equal entries are not always repeated.

The subject of data set [1] is Drug sensitive Mtb clinical strain #1. As to the kind of experiment: MIC against clinical Mtb strains. The format is cell-based. To be noted: Mycobacterium tuberculosis, 7H9/glucose/glycerol/BSA/0.05% Tween 80, average of three.
Data set [2] relates to Drug sensitive Mtb clinical strain #2. Briefly: MIC against clinical Mtb strains. The format is cell-based. The note with it: Mycobacterium tuberculosis, 7H9/glucose/glycerol/BSA/0.05% Tween 80, average of three.
In data set [3] the test system is M. tuberculosis (Mtb) H37Rv. Briefly: Microplate Alamar Blue Assay (MABA), GAS media, replicating Mtb. The format is cell-based, Mycobacterium tuberculosis. To be noted: for MIC90: Mycobacterium tuberculosis, GAS (glycerol-alanine-salt) media, replicating H37Rv, read-out: GAS media: replicating H37Rv Mtb: MIC 90.
Data set [4] deals with M. tuberculosis (Mtb) H37Rv. Briefly: Microplate Alamar Blue Assay (MABA), 7H12 media, replicating Mtb. Type of data set: cell-based. To be noted: Mycobacterium tuberculosis, 7H12 media (no glycerol), read-out: 7H12 media: Replicating H37Rv Mtb: MIC 90.
For data set [5], the system named is VERO kidney epithelial cells. As to the kind of experiment: VERO toxicity assessment. To be noted: for IC50: Chlorocebus sabaeus, Vero, read-out: VERO: IC50.

For `Cc1cn2c(C(=O)NCc3ccc(Oc4ccc(F)cc4)cc3)c(C)nc2s1` [ND-010081], the MIC90 is < 0.01 µM and < 0.025 µg/mL in data set [1]; < 0.025 µg/mL and < 0.01 µM in data set [2]; under 2 µM in data set [3]; under 2 µM in data set [4]. The “in vitro activity against H37Rv TB” value in data set [3] (statement in words, medium not stated) was “comparable to the current clinical candidates”. For the same compound, the half-maximal inhibitory concentration (IC50) in data set [5] fell in the range of 2 to 10 µM. In data set [5] (statement in words), the therapeutic window entry is “sufficient therapeutic window for in vivo treatment”.

For `Cc1nc2sc(C(F)(F)F)cn2c1C(=O)NCc1ccc(Cl)cc1` [ND-020015], the MIC90 in data set [3] is under 2 µM; in data set [4], 2 to 10 µM (≈ 0.748 to 3.74 µg/mL). For the same compound, the IC50 in data set [5] is under 32 µM.

Take `CCc1nc2sc(C)cn2c1C(=O)NCc1ccc(N2CCN(c3ccc(F)cc3)CC2)cc1` [ND-020048]: the MIC90 in data set [3] and in data set [4] was under 2 µM in each case. In data set [5], the IC50 lay in the range of 10 to 20 µM.

As to `CCOc1cccc(CNC(=O)c2c(C)nc3sc(C)cn23)c1` [ND-020029], the MIC90 in data set [3] and in data set [4] was under 2 µM throughout. Moreover, the concentration for half-maximal inhibition (IC50) in data set [5] is under 32 µM.

As for `Cc1cn2c(C(=O)NCCc3ccc(Cl)cc3)c(C)nc2s1` [ND-020081], the MIC90 in data set [3] and in data set [4] was under 2 µM each time. The concentration for half-maximal inhibition (IC50) in data set [5] was under 32 µM.

For the compound `Cc1cn2c(C(=O)NCc3cccc(N4CC(C)CC(C)C4)c3)c(C)nc2s1` (stereo not drawn) [ND-020068], the MIC90 in data set [3] and in data set [4] was under 2 µM each time. For the same compound, the 50% inhibitory concentration (IC50) in data set [5] was under 32 µM.

`Cc1cn2c(C(=O)NCc3cccc(N4CCOCC4)n3)c(C)nc2s1` [ND-020036]: the results for the MIC90 in data set [3] and in data set [4] were under 2 µM and 2 to 10 µM (≈ 0.743 to 3.71 µg/mL), respectively. For the same compound, the IC50 in data set [5] was under 32 µM.

Take `Cc1cn2c(C(=O)NCc3ccc4ccn(C)c4c3)c(C)nc2s1` [ND-020077]: the MIC90 in data set [3] and in data set [4] was under 2 µM throughout. The 50% inhibitory concentration (IC50) in data set [5] is under 32 µM.

Consider `CCc1nc2sc(C)cn2c1C(=O)NCc1ccc2ccn(C)c2c1` [ND-020078], for which the MIC90 in data set [3] and in data set [4] was under 2 µM each time. Besides, the concentration for half-maximal inhibition (IC50) in data set [5] was under 32 µM.

Turning to `O=[N+]([O-])c1cn2c(n1)OC[C@@H](OCc1ccc(OC(F)(F)F)cc1)C2` [PA-824, reference compound], the MIC90 in data set [1] was 0.45 µM to 0.86 µM and 0.16 µg/mL to 0.31 µg/mL; in data set [2], > 13.9 µM and > 5 µg/mL.

Consider `Cc1nc2sc(Cl)cn2c1C(=O)NCc1ccc(C(F)(F)F)cc1` [ND-020012], for which the MIC90 in data set [3] and in data set [4] was under 2 µM throughout. The concentration for half-maximal inhibition (IC50) in data set [5] is under 32 µM.

Consider `Cc1cn2c(C(=O)NCc3ccc(N4CC(C)OC(C)C4)cc3)c(C)nc2s1` (stereo not drawn) [ND-020074], for which the MIC90 in data set [3] and in data set [4] was under 2 µM throughout. For the same compound, in data set [5], the half-maximal inhibitory concentration (IC50) was 20 to 32 µM.

On to `Cc1cn2c(C(=O)NCc3cccc(N4CCN(c5ccc(F)cc5)CC4)c3)c(C)nc2s1` [ND-020047], for which the MIC90 in data set [3] is under 2 µM; in data set [4], 2 to 10 µM (≈ 0.927 to 4.64 µg/mL). Besides, the half-inhibitory concentration (IC50) in data set [5] fell in the range of 20 to 32 µM.

`Cc1cn2c(C(=O)NCc3cccc(N(C)C)c3)c(C)nc2s1` [ND-020019]: the MIC90 in data set [3] and in data set [4] was under 2 µM in each case. Besides, the IC50 in data set [5] is under 32 µM.

For the compound `Cc1cn2c(C(=O)NCc3ccc(C(F)(F)F)cc3)c(C)nc2s1` [ND-020009], the MIC90 in data set [3] and in data set [4] was under 2 µM each time. Further, in data set [5], the IC50 was under 32 µM.

Turning to `COc1cc(CNC(=O)c2c(C)nc3sc(C)cn23)ccn1` [ND-020017], the MIC90 in data set [3] was under 2 µM; in data set [4], 2 to 10 µM (≈ 0.633 to 3.16 µg/mL). In addition, the IC50 in data set [5] was under 32 µM.

For `Cc1nn2c(C(=O)NCc3ccc(Oc4ccc(F)cc4)cc3)c(C)nc2o1` [ND-020051], the MIC90 in data set [3] fell in the range of 2 to 10 µM; in data set [4], 2 to 10 µM (≈ 0.761 to 3.8 µg/mL). In addition, the concentration for half-maximal inhibition (IC50) in data set [5] is 20 to 32 µM.

Take `Cc1cn2c(C(=O)NCc3cccc(Oc4ccc(C(F)(F)F)cc4)c3)c(C)nc2s1` [ND-020057]: the MIC90 in data set [3] and in data set [4] was under 2 µM each time. Besides, in data set [5], the IC50 is under 32 µM.

In the case of `CCc1nc2sc(C)cn2c1C(=O)NCc1ccc(N2CCOCC2)c(F)c1` [ND-020037], the MIC90 is under 2 µM in data set [3] and 2 to 10 µM (≈ 0.805 to 4.02 µg/mL) in data set [4]. The IC50 in data set [5] was under 32 µM.

For the compound `COc1ccc(COC(=O)c2c(C)nc3sc(C)cn23)cc1` [ND-010050], the values for the MIC90 in data set [3] and in data set [4] were 2 to 10 µM and 10 to 20 µM (≈ 3.16 to 6.33 µg/mL), respectively. The IC50 in data set [5] was under 32 µM.

Regarding `Cc1cn2c(C(=O)NCc3ncc(C(F)(F)F)cc3Cl)c(C)nc2s1` [ND-020016], the MIC90 in data set [3] and in data set [4] was under 2 µM throughout. Also, the IC50 in data set [5] is under 32 µM.

Consider `Cc1cn2c(C(=O)NCc3cccc(OC(F)(F)F)c3)c(C)nc2s1` [ND-020007], for which the MIC90 in data set [3] and in data set [4] was under 2 µM throughout. Besides, the IC50 in data set [5] was under 32 µM.

On to `Cc1cn2c(C(=O)NCc3cccc(Cl)c3)c(C(F)(F)F)nc2s1` [ND-020014], for which the MIC90 in data set [3] is under 2 µM; in data set [4], 2 to 10 µM (≈ 0.748 to 3.74 µg/mL). Moreover, the IC50 in data set [5] was under 32 µM.

For `CCc1nc2sc(C)cn2c1C(=O)NCc1ccc(C(F)(F)F)cc1` [ND-020010], the MIC90 in data set [3] and in data set [4] was under 2 µM each time. Moreover, in data set [5], the half-inhibitory concentration (IC50) is under 32 µM.

As to `Cc1cn2c(C(=O)NCc3cccc(Oc4ccc(Cl)cc4)c3)c(C)nc2s1` [ND-020058], the MIC90 in data set [3] and in data set [4] was under 2 µM throughout. In data set [5], the IC50 was in the range of 20 to 32 µM.

For the compound `Cc1cn2c(C(=O)NCc3ccc4c(ccn4C)c3)c(C)nc2s1` [ND-020079], the MIC90 in data set [3] and in data set [4] was under 2 µM each time. Also, in data set [5], the IC50 was under 32 µM.

Take `Cc1cn2c(C(=O)NCc3ccc(N4CCOCC4)cc3)c(C)nc2s1` [ND-020033]: the MIC90 in data set [3] was under 2 µM; in data set [4] it was 2 to 10 µM (≈ 0.741 to 3.7 µg/mL). Besides, the IC50 in data set [5] fell in the range of 20 to 32 µM.

As to `CCc1nc2sc(C)cn2c1C(=O)NCc1ccc(N2CCC(c3ccc(F)cc3)CC2)cc1` [ND-020046], the MIC90 in data set [3] and in data set [4] was under 2 µM in each case. The IC50 in data set [5] is 10 to 20 µM.

For the compound `Cc1cn2c(C(=O)NCc3cccc(C(F)(F)F)c3)c(C)nc2s1` [ND-020008], the MIC90 in data set [3] and in data set [4] was under 2 µM throughout. The IC50 in data set [5] is under 32 µM.

In the case of `Cc1cn2c(C(=O)NCc3ccccc3Cl)c(C)nc2s1` [ND-020001], the MIC90 in data set [3] and in data set [4] was under 2 µM each time. In addition, the IC50 in data set [5] was under 32 µM.

Turning to `Cc1cn2c(C(=O)Nc3ccc(-c4ccc(C(F)(F)F)cc4)nc3)c(C)nc2s1` [ND-020044], the values for the MIC90 in data set [3] and in data set [4] were 2 to 10 µM and 2 to 10 µM (≈ 0.833 to 4.16 µg/mL), respectively. Further, the IC50 in data set [5] is under 32 µM.

Consider `Cc1cn2c(C(=O)NCc3cc(F)cc(F)c3)c(C)nc2s1` [ND-020004], for which the MIC90 in data set [3] and in data set [4] was under 2 µM each time. The half-maximal inhibitory concentration (IC50) in data set [5] is under 32 µM.

As to `Cc1nc2sc(C(F)(F)F)cn2c1C(=O)NCc1ccc(N(C)C)cc1` [ND-020024], the MIC90 in data set [3] is under 2 µM; in data set [4], 2 to 10 µM (≈ 0.765 to 3.82 µg/mL). Also, in data set [5], the 50% inhibitory concentration (IC50) is under 32 µM.

Consider `Cc1nc2sc(Cl)cn2c1C(=O)Nc1ccc(Oc2ccc(C(F)(F)F)cc2)cc1` [ND-020041], for which the MIC90 in data set [3] and in data set [4] was under 2 µM throughout. Also, the IC50 in data set [5] was under 32 µM.

As a reminder, the IC50 is the concentration that gives 50% inhibition.
